Assay results from patent publication US20090274773A1, “ANTIPROLIFERATIVE COMBINATION COMPRISING CYC-682 AND A CYTOTOXIC AGENT” (Cyclacel Limited, priority 2005, published 2009).
Where two headings read alike, the source gives them in different places.

Legend:
Assay type in all cases: cell-based, human
COLO205 = test: MTT growth inhibition assay, single agent; conditions: read-out: Antiproliferative effects IC50s (MTT assay)
Method: (§1) All cell lines were obtained from the ATCC (Rockville, Md.). Cells were grown as monolayers in RPMI medium supplemented with 10% fetal calf serum (Invitrogen, Cergy-Pontoise, France), 2 mM glutamine, 100 units/ml penicillin and 100 μg/ml streptomycin. All cells were split twice a week using trypsin/EDTA (0.25% and 0.02%, respectively; Invitrogen, Cergy-Pontoise, France) and seeded at a concentration of 2.5×10^4 cells/ml. All cell lines were tested regularly for Mycoplasma contamination by PCR using a Stratagene kit (La Jolla, Calif.).
(§2) The MTT assay was carried out as described previously (Hansen M B, Nielsen S E, Berg K. Re-examination and further development of a precise and rapid dye method for measuring cell growth/cell kill. J Immunol Methods. 1989 May 12; 119(2):203-10). In brief, cells were seeded in 96-well tissue culture plates at a density of 2×10^3 cells/well. Cell viability was determined after a 120-hour incubation, by the calorimetric conversion of yellow, water-soluble tetrazolium MTT (3-[4,5-dimethylthiazol-2-yl]-2,5-diphenyltetrazolium bromide; Sigma, Saint-Quentin Fallavier, France), into purple, water-insoluble formazan. This reaction is catalyzed by mitochondrial dehydrogenases and is used to estimate the relative number of viable cells (Mosmann, T, Rapid calorimetric assay for cellular growth and survival: application to proliferation and cytotoxicity assays. J Immunol Methods. 1983 Dec. 16; 65 (1-2):55-63). Cells were incubated with 0.4 mg/ml MTT for 4 hours at 37° C. After incubation, the supernatant was discarded, the cell pellet was resuspended in 0.1 ml of DMSO and the absorbance was measured at 560 nm using a microplate reader (Dynatech, Michigan). Wells with untreated cells or with drug-containing medium without cells were used as positive and negative controls, respectively. Growth inhibition curves were plotted as a percentage of untreated control cells.
(§3) The cells were seeded at 2×10^3 cells/well in 96-well plates and treated 24 hours later with increasing concentrations of CYC682. After incubation times of 1 hour, 24 hours or 48 hours, the cells were washed and post-incubated in drug-free medium for 72 hours. Growth inhibition was then determined by the MTT assay.

HCC2998 = test: MTT growth inhibition assay, single agent; conditions: read-out: Antiproliferative effects IC50s (MTT assay)
Method: as §1, §2, §3

HCT116 = test: MTT growth inhibition assay, single agent; conditions: read-out: Antiproliferative effects IC50s (MTT assay)
Method: as §1, §2, §3

HOP62 = test: MTT growth inhibition assay, single agent; conditions: read-out: Antiproliferative effects IC50s (MTT assay)
Method: as §1, §2, §3

HOP92 = test: MTT growth inhibition assay, single agent; conditions: read-out: Antiproliferative effects IC50s (MTT assay)
Method: as §1, §2, §3

HT29 = test: MTT growth inhibition assay, single agent; conditions: read-out: Antiproliferative effects IC50s (MTT assay)
Method: as §1, §2, §3

IGROV1 = test: MTT growth inhibition assay, single agent; conditions: read-out: Antiproliferative effects IC50s (MTT assay)
Method: as §1, §2, §3

MCF7 = test: MTT growth inhibition assay, single agent; conditions: 24 hours exposure, read-out: Antiproliferative effects IC50s (MTT assay)
Method: as §1, §2, §3

MDA-MB-435 = test: MTT growth inhibition assay, single agent; conditions: 24 hours exposure, read-out: Antiproliferative effects IC50s (MTT assay)
Method: as §1, §2, §3

OVCAR1 = test: MTT growth inhibition assay, single agent; conditions: 24 hours exposure, read-out: Antiproliferative effects IC50s (MTT assay)
Method: as §1, §2, §3

NSCLC cell line H1299 = test: CNDAC combinations (alamar blue, Calcusyn Combination Index); conditions: for Interaction with CNDAC (in words), summary of Table 3: combination with CNDAC, regime not specified; for Combination Index at ED50, Concomitant / Combination Index at ED75, Concomitant / Combination Index at ED90, Concomitant: simultaneous treatment 72 h
Method: Experiments in the NSCLC cell lines H1299 or RERF-LC-MA were performed in 96-well plates, with cells seeded at a density of 3,000/well, in DMEM containing 10% (v/v) FCS. Stock solutions of all drugs were made up in dimethylsulfoxide (DMSO), with the exception of gemcitabine, which was dissolved in 0.9% (w/v) sterile saline solution.
For experimental assessment of potential synergistic interactions, the concomitant treatment regime involved simultaneous treatment of cells with CNDAC and the other agent under investigation for 72 h, alongside suitable controls of cells treated with the individual compounds alone for 72 hr. In the sequential treatment regimes, one drug was added to the cells 2 h after plating, and left for 24 h. Media was then aspirated, replaced with fresh media containing the second drug and incubated for 72 h. The two individual treatment controls for the sequential treatment regime involved substituting one of the drug treatments with drug-free media. […] Drug interactions were analysed using the Calcusyn software package (BioSoft, Cambridge, U.K.) described below.

COLO205 cancer cell line = test: CYC682 drug-combination study (MTT, Chou and Talalay combination index, isobolograms); conditions: COLO205; named agent given prior to CYC682
Method: (§4) For simultaneous drug exposure, cells were seeded at 2×10^3 cells/well in 96-well plates and treated 24 hours later with increasing concentrations of CYC682 alone or with various concentrations of another drug corresponding to the IC20, IC40 or IC60 values. After approximately four doubling times (120 hours), the growth inhibitory effect was measured by the MTT assay.
(§5) Cells were seeded at 2×10^3 cells/well in 96-well plates and allowed to grow for 24 hour. Cells were then exposed to various concentrations of the first drug for 1 hour/24 hours/48 hours, the drug was removed, the cells were washed and the second drug was added. After additional drug exposure, the second drug was removed, the cells were washed and incubated in drug-free medium for 72 hours. Growth inhibition was then determined by the MTT assay.
(§6) Effects of drug combinations were evaluated using the Chou and Talalay method which is based on the median-effect principle (Chou T C, Talalay P. Quantitative analysis of dose-effect relationships: the combined effects of multiple drugs or enzyme inhibitors. Adv Enzyme Regul. 1984; 22:27-55). […] On the basis of the slope of the curve for each drug in a combination, it can be determined whether the drugs have mutually nonexclusive effects (e.g., independent or interactive modes of action).
(§7) The combination index (CI) is then determined by the equation:
(§8) CI=[(C)1/(Cx)1]+[(C)2/(Cx)2]+[α(C)1(C)2/(Cx)1(Cx)2],
(§9) where (Cx)1 is the concentration of drug 1 required to produce an x percent effect of that drug alone, and (C)1, the concentration of drug 1 required to produce the same x percent effect in combination with (C)2. If the mode of action of the drugs is mutually exclusive or nonexclusive, then α is 0 or 1, respectively. CI values will be calculated with this equation using different values of fa (i.e., for different degrees of cell growth inhibition). CI values of <1 indicate synergy, the value of 1 indicates additive effects, and values >1 indicate antagonism. Data were analyzed on an IBM-PC computer using concentration-effect analysis for microcomputer software (Biosoft, Cambridge, UK). For statistical analysis and graphs we will use Instat and Prism software (GraphPad, San Diego, USA). The dose-effect relationships for the drugs tested, alone or in paired combinations, were subjected to median-effect plot analysis to determine their relative potency (IC50), shape (m), and conformity (r) in each selected cell line. As stated above, the IC50 and m values were respectively used to calculate synergism and antagonism on the basis of the CI equation. Results were expressed as the mean±standard deviation of at least 3 experiments performed in duplicate. In each experiment, cells were exposed to the paired combinations for 48 hours as described above. Means and standard deviations were compared using Student's t-test (two-sided p value).
(§10) The effect of sequential and simultaneous exposure (FIG. 2) to CYC682 with oxaliplatin, doxorubicin, docetaxel and gemcitabine was studied in two sensitive colon cancer cell lines—COLO205 and HCT116 using combination indices that represent an affected fraction for the concentration of drugs corresponding to IC50 as previously described by Chou and Talalay.

HCT116 cancer cell line = test: as above; conditions: HCT116; named agent given prior to CYC682
Method: as §4, §5, §6, §7, §8, §9, §10

[1] = Homo sapiens, COLO 205, 24 hours exposure
[2] = Homo sapiens, HCC 2998, 24 hours exposure
[3] = Homo sapiens, HCT-116, 24 hours exposure
[4] = Homo sapiens, HOP-62, 24 hours exposure
[5] = Homo sapiens, HOP-92, 24 hours exposure
[6] = Homo sapiens, HT-29, 24 hours exposure
[7] = Homo sapiens, IGROV-1, 24 hours exposure
[8] = named agent in combination with CNDAC, H1299, CNDAC 24 h then other agent 72 h
[9] = named agent in combination with CNDAC, H1299, named agent 24 h then CNDAC 72 h
[10] = named agent in combination with CNDAC, H1299

IC50 (COLO205; [1]) [µM] | IC50 (HCC2998; [2]) [µM] | IC50 (HCT116; [3]) [µM] | IC50 (HT29; [6]) [µM] | IC50 (MCF7; Homo sapiens) [µM] | IC50 (MDA-MB-435; Homo sapiens) [µM] | IC50 (OVCAR1; Homo sapiens) [µM] | SMILES | IC50 (HOP62; [4]) [µM] | IC50 (HOP92; [5]) [µM] | IC50 (IGROV1; [7]) [µM] | Interaction with CNDAC at ED50 (in words) (NSCLC cell line H1299; H1299, concomitant treatment) | Interaction with CNDAC (in words), summary of Table 3 (NSCLC cell line H1299) | Combination Index at ED50, Concomitant (NSCLC cell line H1299; [10]) | Combination Index at ED75, Concomitant (NSCLC cell line H1299; [10]) | Combination Index at ED90, Concomitant (NSCLC cell line H1299; [10]) | further results
240 ± 20 | 10 ± 1 | 5.3 ± 1.3 | 24 ± 1 | 10 ± 1 | 10 ± 2 | 24 ± 1 | O=c1[nH]cc(F)c(=O)[nH]1 [5-FU, 5-fluorouracil] | 118 ± 32 | 11 ± 1 | 29 ± 1 |  |  |  |  |  | 
 |  |  |  |  |  |  | N.N.[Cl][Pt][Cl] [Cisplatin, cis-diamminedichlorplatinum (II)] |  |  |  | weak synergy | synergistic drug interactions | 0.77 | 1.65 | 7.56 | IC50 (COLO205; 24 hours exposure): 9.5 ± 2.5 µM; IC50 (HCC2998; 24 hours exposure): 25 ± 5 µM; IC50 (HCT116; 24 hours exposure): 9.2 ± 0.9 µM; IC50 (HOP62; 24 hours exposure): 9.3 ± 0.9 µM; IC50 (HOP92; 24 hours exposure): 4.4 ± 0.4 µM; IC50 (HT29; 24 hours exposure): 25 ± 3 µM; IC50 (IGROV1; 24 hours exposure): 26 ± 6 µM; IC50 (MCF7): 32 ± 2 µM; IC50 (MDA-MB-435): 13 ± 2.6 µM; IC50 (OVCAR1): 12.1 ± 3.93 µM; Interaction with CNDAC at ED50 (in words) (NSCLC cell line H1299; H1299, pre-treatment with named agent): synergy; Combination Index at ED75, CNDAC pretreatment (NSCLC cell line H1299; [8]): 1.5; Combination Index at ED90, CNDAC pretreatment (NSCLC cell line H1299; [8]): 13.68; Combination Index at ED50, CNDAC pretreatment (NSCLC cell line H1299; named agent in combination with CNDAC, H1299, CNDAC 24 h then other agent 72 h, C.I. <1 synergistic, 1 additive, >1 antagonistic): 1.16; Combination Index at ED50, Other (named agent) pretreatment (NSCLC cell line H1299; [9]): 0.65; Combination Index at ED75, Other (named agent) pretreatment (NSCLC cell line H1299; [9]): 0.93; Combination Index at ED90, Other (named agent) pretreatment (NSCLC cell line H1299; [9]): 1.96
0.2 ± 0.1 | 0.01 ± 0.002 | 0.05 ± 0.01 | 0.015 ± 0.003 | 0.01 ± 0.002 | 0.04 ± 0.008 | 1.2 ± 0.2 | Nc1ccn([C@@H]2O[C@H](CO)[C@@H](O)C2(F)F)c(=O)n1 [Gemcitabine, 2′-deoxy-2′,2′-difluorocytidine] | 0.01 ± 0.002 | 0.02 ± 0.004 | 0.02 ± 0.004 | synergy | synergistic drug interactions | 0.65 | 1.83 | 6.11 | Interaction with CYC682 (isobologram) (COLO205 cancer cell line): synergistic; Interaction with CYC682 (isobologram) (HCT116 cancer cell line): synergistic
